# Read-outs that look alike come from different tables or passages of the source.
# Target: T1, F508delCFTR (Homo sapiens, UniProt P13569, DEL508-508)
# T1 construct: expressed in transfected cells; host or cells: CFBE41o- human lung-derived epithelial cells (CFBE4lo-F508delCFTR-HRP), doxycycline-inducible
# Assay: Cell Surface Expression-Horse Radish Peroxidase (CSE-HRP) Assay;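 on Maximum % activity (with co-corrector): co-corrector and positive control are both the same reference corrector at 2 µM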;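 on Maximum % activity (without co-corrector): percent of the 2 µM on-plate positive control corrector response above DMSO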
# Assay type: cell-based
# Conditions: for Maximum % activity (with co-corrector) / Emax / Maximum % activity (without co-corrector): maximum at any tested concentration, normalized to on-plate positive control; for Emax: read-out: Maximum % activity (without co-corrector)
# [1] = test compound without co-corrector, read-out: EC50 (without co-corrector)
# [2] = with co-corrector (2 μM of 3-[(2R,4R)-4-({[1-(2,2-difluoro-1,3-benzodioxol-5-yl)cyclopropyl]carbonyl}amino)-7-methoxy-3,4-dihydro-2H-chromen-2-yl]benzoic acid), read-out: EC50 (with co-corrector)
# [3] = test compound without co-corrector
# [4] = with co-corrector (2 μM of 3-[(2R,4R)-4-({[1-(2,2-difluoro-1,3-benzodioxol-5-yl)cyclopropyl]carbonyl}amino)-7-methoxy-3,4-dihydro-2H-chromen-2-yl]benzoic acid)
# [5] = CSE-HRP, test compound without co-corrector, read-out: EC50 (without co-corrector)
# [6] = CSE-HRP, with co-corrector (2 μM of 3-[(2R,4R)-4-({[1-(2,2-difluoro-1,3-benzodioxol-5-yl)cyclopropyl]carbonyl}amino)-7-methoxy-3,4-dihydro-2H-chromen-2-yl]benzoic acid), read-out: EC50 (with co-corrector)
# [7] = CSE-HRP, with co-corrector (2 μM)
# T1 sequence (P13569 with tags, fused parts or gaps DEL508-508): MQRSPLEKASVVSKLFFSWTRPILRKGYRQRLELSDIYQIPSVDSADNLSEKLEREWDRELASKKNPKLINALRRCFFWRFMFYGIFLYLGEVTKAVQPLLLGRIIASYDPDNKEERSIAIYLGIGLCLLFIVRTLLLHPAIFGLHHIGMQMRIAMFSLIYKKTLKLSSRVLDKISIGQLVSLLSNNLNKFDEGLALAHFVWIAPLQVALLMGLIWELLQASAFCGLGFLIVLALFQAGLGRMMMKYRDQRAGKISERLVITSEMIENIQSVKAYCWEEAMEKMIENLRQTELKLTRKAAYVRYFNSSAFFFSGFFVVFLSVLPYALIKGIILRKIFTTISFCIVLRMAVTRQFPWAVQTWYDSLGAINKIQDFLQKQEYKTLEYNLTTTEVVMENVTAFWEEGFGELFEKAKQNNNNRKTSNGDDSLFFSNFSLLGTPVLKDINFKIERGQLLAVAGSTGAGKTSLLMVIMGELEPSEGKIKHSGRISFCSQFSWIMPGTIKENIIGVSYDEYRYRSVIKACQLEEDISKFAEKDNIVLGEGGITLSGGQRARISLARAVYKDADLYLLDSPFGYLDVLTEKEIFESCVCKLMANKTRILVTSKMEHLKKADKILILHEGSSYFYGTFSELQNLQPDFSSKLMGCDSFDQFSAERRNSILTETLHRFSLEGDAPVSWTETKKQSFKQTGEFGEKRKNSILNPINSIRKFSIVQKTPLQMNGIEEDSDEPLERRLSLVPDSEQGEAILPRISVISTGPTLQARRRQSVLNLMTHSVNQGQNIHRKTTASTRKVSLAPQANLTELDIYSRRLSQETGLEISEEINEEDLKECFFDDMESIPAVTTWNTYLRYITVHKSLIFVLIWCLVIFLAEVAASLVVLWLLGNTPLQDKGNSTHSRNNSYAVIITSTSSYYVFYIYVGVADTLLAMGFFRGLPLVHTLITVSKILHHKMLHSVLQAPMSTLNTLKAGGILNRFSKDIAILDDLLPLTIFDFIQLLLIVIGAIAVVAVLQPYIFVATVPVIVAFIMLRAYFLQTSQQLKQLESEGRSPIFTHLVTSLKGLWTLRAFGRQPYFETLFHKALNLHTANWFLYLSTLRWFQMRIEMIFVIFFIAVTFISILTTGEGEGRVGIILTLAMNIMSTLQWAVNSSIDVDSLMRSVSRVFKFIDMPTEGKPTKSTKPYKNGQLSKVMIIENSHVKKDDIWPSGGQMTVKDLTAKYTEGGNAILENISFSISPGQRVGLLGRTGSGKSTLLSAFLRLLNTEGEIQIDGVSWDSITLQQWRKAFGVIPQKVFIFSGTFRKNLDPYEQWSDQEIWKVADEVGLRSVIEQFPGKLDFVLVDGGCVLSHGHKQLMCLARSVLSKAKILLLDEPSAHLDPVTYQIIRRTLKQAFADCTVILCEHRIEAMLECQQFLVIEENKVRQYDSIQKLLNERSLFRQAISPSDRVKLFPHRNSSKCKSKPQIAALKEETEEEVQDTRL
Compound,EC50 [1] [nM],EC50 [2] [nM],Maximum % activity (with co-corrector) (with co-corrector (2 μM)),Emax [3] [%],EC50 [5] [nM],EC50 [6] [nM],Maximum % activity (with co-corrector) [7],"Emax (CSE-HRP, without co-corrector) [%]",further results
CC(C)c1cc(C(F)(F)F)cc(N[C@H]2[C@H](C(C)(C)C)[C@@H](C(=O)O)N(C(=O)C3CCCCC3)[C@H]2c2ccccc2)n1 [Example I-54],1000 to 10000,1000 to 10000,++ (≥150 and <350),,,,,,Emax (without co-corrector): < 100%
Cc1cc(C)cc(CN[C@H]2[C@H](C(C)(C)C)[C@@H](C(=O)O)N(C(=O)C3CCCCC3)[C@H]2c2ccccc2)c1 [II-132],,,,,1000 to 10000,1000 to 10000,+++ (≥350),< 100,
"COc1ncc(C(F)(F)F)cc1CN[C@H]1[C@H](C(C)(C)C)[C@@H](C(=O)O)N(C(=O)OC(C)C)[C@H]1c1cccnc1OC(C)C [Example 79, (2S,3S,4S,5S)-3-tert-butyl-4-({[2-methoxy-5-(trifluoromethyl)pyridin-3-yl]methyl}amino)-1-{[(propan-2-yl)oxy]carbonyl}-5-{2-[(propan-2-yl)oxy]pyridin-3-yl}pyrrolidine-2-carboxylic acid]",1000 to 10000,1000 to 10000,+++ (≥350),,,,,,Emax (without co-corrector): > 200%
CC(C)COc1ccccc1CN[C@@H]1[C@@H](C(C)(C)C)[C@H](C(=O)O)N(C(=O)C2CCCCC2)[C@@H]1c1ccccc1 (racemic) [II-5],,,,,1000 to 10000,1000 to 10000,+++ (≥350),< 100,
COc1ccc(-c2cccc(F)c2F)cc1CN[C@H]1[C@H](C(C)(C)C)[C@@H](C(=O)O)N(C(=O)C2CCCCC2)[C@H]1c1ccccc1 [II-286],,,,,< 1000,< 1000,+++ (≥350),> 200,
COc1ccc(OC(F)(F)F)cc1CN[C@H]1[C@H](C(C)(C)C)[C@@H](C(=O)O)N(C(=O)OC(C)C)[C@H]1c1ccccc1 [II-523],1000 to 10000,1000 to 10000,,> 200,,,,,Maximum % activity (with co-corrector) [4]: +++ (≥350)
COc1ccc(C(F)(F)F)cc1CN[C@H]1[C@H](C(C)(C)C)[C@@H](C(=O)O)N(C(=O)C(OC)C(C)C)[C@H]1c1ccccc1 (some centres unmarked) [II-273],,,,,1000 to 10000,1000 to 10000,+++ (≥350),> 200,
CC(C)(C)[C@@H]1[C@@H](Nc2cccc(OC(F)F)n2)[C@@H](c2ccccc2)N(C(=O)C2CCCCC2)[C@H]1C(=O)O (racemic) [Example I-21],1000 to 10000,1000 to 10000,+++ (≥350),,,,,,Emax (without co-corrector): < 100%
COc1cc(C(F)(F)F)ccc1CN[C@H]1[C@H](C(C)(C)C)[C@@H](C(=O)O)N(C(=O)[C@H](OC)c2ccccc2)[C@H]1c1cccnc1N(C)C [II-87],,,,,1000 to 10000,1000 to 10000,+++ (≥350),100 to 200,
"COc1ccc(C(F)(F)F)cc1CN[C@H]1[C@H](C(C)(C)C)[C@@H](C(=O)O)N(C(=O)C2Cc3ccccc3O2)[C@H]1c1ccccc1 (single isomer, unassigned) [II-266]",,,,,1000 to 10000,< 1000,,,"Maximum % activity (with co-corrector) (CSE-HRP, with co-corrector (2 μM), 2 µM): +++ (≥350); Maximum % activity (without co-corrector) (CSE-HRP, without co-corrector): ++ (≥100 and <200)"
COc1ccc(C(C)(C)C)cc1CN[C@H]1[C@H](C(C)(C)C)[C@@H](C(=O)O)N(C(=O)CC2CCOc3ccccc32)[C@H]1c1ccccc1 (some centres unmarked) [II-213],,,,,1000 to 10000,1000 to 10000,+++ (≥350),100 to 200,
COc1ccc(C(C)(C)C)cc1CN[C@H]1[C@H](C(C)(C)C)[C@@H](C(=O)O)N(C(=O)[C@@]2(C)COc3cc4c(cc32)OC(F)(F)O4)[C@H]1c1cccnc1OC [Example I-254],,,,,1000 to 10000,1000 to 10000,+++ (≥350),< 100,
COc1cc(C(C)(C)C)ccc1CN[C@H]1[C@H](C(C)(C)C)[C@@H](C(=O)O)N(C(=O)OC(C)C)[C@H]1c1ccccc1OC [II-135],,,,,1000 to 10000,1000 to 10000,+++ (≥350),100 to 200,
COc1ncc(C2CCC2)cc1CN[C@H]1[C@H](C(C)(C)C)[C@@H](C(=O)O)N(C(=O)C2COc3ccccc3O2)[C@H]1c1ccccc1 (some centres unmarked) [II-474],1000 to 10000,1000 to 10000,,100 to 200,,,,,Maximum % activity (with co-corrector) [4]: +++ (≥350)
COc1cc(C#N)ccc1CN[C@@H]1[C@@H](C(C)(C)C)[C@H](C(=O)O)N(C(=O)C2CCCCC2)[C@@H]1c1ccccc1 (racemic) [II-74],,,,,1000 to 10000,1000 to 10000,+++ (≥350),< 100,
"COc1ccc(C(C)(C)C)cc1CN[C@H]1[C@H](C(C)(C)C)[C@@H](C(=O)O)N(C(=O)CC2CCCCO2)[C@H]1c1ccccc1 (stereo partly drawn) [Example 20, (2S,3S,4S,5S)-3-tert-butyl-4-{[(5-tert-butyl-2-methoxyphenyl)methyl]amino}-1-[(oxan-2-yl)acetyl]-5-phenylpyrrolidine-2-carboxylic acid]",1000 to 10000,1000 to 10000,+++ (≥350),,,,,,Emax (without co-corrector): 100 to 200%
COc1ncc(CC(C)C)cc1CN[C@H]1[C@H](C(C)(C)C)[C@@H](C(=O)O)N(C(=O)C2CCCCC2)[C@H]1c1ccccc1 [Example I-76],1000 to 10000,< 1000,+++ (≥350),,,,,,Emax (without co-corrector): > 200%
COc1ccc2c(c1)CCC2C(=O)N1[C@H](C(=O)O)[C@@H](C(C)(C)C)[C@H](NCc2cc(C(C)(C)C)ccc2OC)[C@@H]1c1ccccc1 (some centres unmarked) [II-365],< 1000,< 1000,,> 200,,,,,Maximum % activity (with co-corrector) [4]: +++ (≥350)
COc1ccc(C(C)(C)C)cc1CN[C@H]1[C@H](C(C)(C)C)[C@@H](C(=O)O)N(C(=O)C2CC(C)(C)C2)[C@H]1c1ccccc1 [II-328],1000 to 10000,1000 to 10000,,> 200,,,,,Maximum % activity (with co-corrector) [4]: +++ (≥350)
"COc1ccc(C23CC(C2)C3)cc1CN[C@H]1[C@H](C(C)(C)C)[C@@H](C(=O)O)N(C(=O)OC(C)C)[C@H]1c1cccnc1N(C)C [Example 64, (2S,3S,4S,5S)-4-({[5-(bicyclo[1.1.1]pentan-1-yl)-2-methoxyphenyl]methyl}amino)-3-tert-butyl-5-[2-(dimethylamino)pyridin-3-yl]-1-{[(propan-2-yl)oxy]carbonyl}pyrrolidine-2-carboxylic acid]",1000 to 10000,1000 to 10000,+++ (≥350),,,,,,Emax (without co-corrector): > 200%

# Continued, in another order:
EC50 [1] [nM],EC50 [2] [nM],Maximum % activity (with co-corrector) (with co-corrector (2 μM)),Emax [3] [%],EC50 [5] [nM],EC50 [6] [nM],Maximum % activity (with co-corrector) [7],"Emax (CSE-HRP, without co-corrector) [%]",Compound,further results
1000 to 10000,1000 to 10000,,< 100,,,,,COc1cccc(CN[C@@H]2[C@@H](C(C)(C)C)[C@H](C(=O)O)N(C(=O)C3CCCCC3)[C@@H]2c2ccccc2)n1 (racemic) [III-19],Maximum % activity (with co-corrector) [4]: ++ (≥150 and <350)
> 10000,1000 to 10000,,< 100,,,,,CCN(C)S(=O)(=O)NC(=O)[C@H]1[C@H](C(C)(C)C)[C@@H](Nc2cc(C(F)(F)F)cc(C)n2)[C@@H](c2ccccc2)N1C(=O)C1CCCCC1 (racemic) [III-55],Maximum % activity (with co-corrector) [4]: ++ (≥150 and <350)
> 10000,1000 to 10000,++ (≥150 and <350),< 100,,,,,COc1ccc(C(F)(F)F)cc1CN[C@@H]1[C@@H](C(C)(C)C)[C@H](C(=O)O)N(C(=O)[C@H](OC)c2ccccc2)[C@@H]1c1ccccc1N(C)C [III-98],
> 10000,> 10000,+ (<150),< 100,,,,,CC(C)(C)NC(=O)c1cncc(N[C@H]2[C@H](C(C)(C)C)[C@@H](C(=O)O)N(C(=O)C3CCCCC3)[C@H]2c2ccccc2)c1 [III-161],
,,,,1000 to 10000,1000 to 10000,+++ (≥350),,"COc1ccc(C(C)(C)C)cc1CN[C@H]1[C@H](C(C)(C)C)[C@@H](C(=O)O)N(C(=O)C(C)n2cc(Cl)c(C)n2)[C@H]1c1ccccc1 (single isomer, unassigned) [III-182]","Maximum % activity (without co-corrector) (CSE-HRP, without co-corrector): +++ (≥200)"
> 10000,1000 to 10000,,< 100,,,,,CN(C)c1ncc(C(F)(F)F)cc1CN[C@@H]1[C@@H](C(C)(C)C)[C@H](C(=O)O)N(C(=O)C2CCCCC2)[C@@H]1c1ccccc1 (racemic) [III-36],Maximum % activity (with co-corrector) [4]: ++ (≥150 and <350)
1000 to 10000,1000 to 10000,++ (≥150 and <350),< 100,,,,,CC(C)(C)[C@H]1[C@H](NCc2cc3c(cc2Cl)OCO3)[C@H](c2ccccc2)N(C(=O)C2CCCCC2)[C@@H]1C(=O)O [III-142],
> 10000,1000 to 10000,,< 100,,,,,CC(C)(C)[C@@H]1[C@@H](NCc2ccc(Cl)cc2Cl)[C@@H](c2ccccc2)N(C(=O)CC2CCCC2)[C@H]1C(=O)O (racemic) [III-3],Maximum % activity (with co-corrector) [4]: ++ (≥150 and <350)
1000 to 10000,< 1000,+++ (≥350),> 200,,,,,COc1ccc(C(C)c2ccccc2)cc1CN[C@H]1[C@H](C(C)(C)C)[C@@H](C(=O)O)N(C(=O)C2CCCCC2)[C@H]1c1ccccc1 (some centres unmarked) [III-171],

# Source: patent US20180099931A1 (AbbVie S.à.r.l., priority 2016, published 2018)
